What is called IC50 is the point on the concentration scale where inhibition reaches its midpoint.

Assay [1] has as its target T1, human IRE1 (hIRE1, IRE1α) (Homo sapiens, UniProt O75460).
T1 construct: gene ERN1; aa 465-977, His & GST Tag
The assay can be described thus: MST displacement of fluorescent Kinase Tracer […] (positive control). It is filed as binding.

The target of assay [2] is T1, human IRE1 (hIRE1, IRE1α). The assay can be described thus: in vitro RNase cleavage assay, recombinant IRE1, fluorescence-quenched mini XBP1 RNA probe. The assay is classed as biochemical.

T1 sequence (O75460 465-977): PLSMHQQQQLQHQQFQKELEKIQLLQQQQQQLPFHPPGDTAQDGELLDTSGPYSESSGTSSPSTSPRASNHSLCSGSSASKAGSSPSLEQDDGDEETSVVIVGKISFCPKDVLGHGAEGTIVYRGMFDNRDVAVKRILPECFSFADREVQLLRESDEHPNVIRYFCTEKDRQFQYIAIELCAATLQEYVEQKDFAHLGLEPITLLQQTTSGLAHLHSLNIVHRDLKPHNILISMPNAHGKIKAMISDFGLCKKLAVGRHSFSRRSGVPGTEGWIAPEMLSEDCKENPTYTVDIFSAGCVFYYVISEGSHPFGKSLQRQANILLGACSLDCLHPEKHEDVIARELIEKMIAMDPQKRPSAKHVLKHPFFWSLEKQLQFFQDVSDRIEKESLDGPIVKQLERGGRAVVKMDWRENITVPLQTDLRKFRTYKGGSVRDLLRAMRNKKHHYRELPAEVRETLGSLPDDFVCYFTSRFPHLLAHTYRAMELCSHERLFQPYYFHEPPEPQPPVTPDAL

With `Cc1ccc2c(NS(=O)(=O)c3ccccc3Cl)cccc2c1Oc1ncccc1-c1ccnc(N[C@H]2CCCNC2)n1` [KIRA8], the IC50 in assay [1] came out at 73 ± 5 nM.

As to `O=c1c(O)c(-c2ccc(O)c(O)c2)oc2cc(O)cc(O)c12` [Qe, Quercetin], the 50% inhibitory concentration (IC50) in assay [2] was found to be 272 ± 150 nM.

`C[C@@H]1O[C@@H](Oc2c(-c3ccc(O)c(O)c3)oc3cc(O)cc(O)c3c2=O)[C@H](O)[C@H](O)[C@H]1O` [Qi, Quercitrin]: in assay [2], the IC50 came to 226 ± 70 nM.

The record behind these values is publication PMC10767055, “Different binding modalities of quercetin to inositol-requiring enzyme 1 of S. cerevisiae and human lead to opposite regulation” (Communications Chemistry, 2024).
